Assay results reported in ChEMBL document CHEMBL2413072, “Synthesis and in vitro anticancer studies of novel C-2 arylidene congeners of lantadenes” (2013).

Experiments:
Assay type in all cases: functional
MCF7 [1] = assay: Growth inhibition of human MCF7 cells assessed as cell growth at 10^-6 M by sulforhodamine B assay; details: read-out: Activity
OVCAR-4 = assay: Growth inhibition of human OVCAR4 cells assessed as cell growth at 10^-7 M by sulforhodamine B assay; details: read-out: Activity
SF-539 [2] = assay: Growth inhibition of human SF539 cells assessed as cell growth at 10^-7 M by sulforhodamine B assay; details: read-out: Activity
HCT-116 = assay: Growth inhibition of human HCT116 cells assessed as cell growth at 10^-4 M by sulforhodamine B assay; details: read-out: Activity
RPMI-8226 [3] = assay: Growth inhibition of human RPMI8226 cells assessed as cell growth at 10^-7 M by sulforhodamine B assay; details: read-out: Activity
NCI-H226 = assay: Growth inhibition of human NCI-H226 cells assessed as cell growth at 10^-8 M by sulforhodamine B assay; details: read-out: Activity
MDA-MB-435 = assay: Growth inhibition of human MDA-MB-435 cells assessed as cell growth at 10^-4 M by sulforhodamine B assay; details: read-out: Activity
T47D [4] = assay: Growth inhibition of human T47D cells assessed as cell growth at 10^-6 M by sulforhodamine B assay; details: read-out: Activity
CCRF-CEM = assay: Growth inhibition of human CCRF-CEM cells assessed as cell growth at 10^-8 M by sulforhodamine B assay; details: read-out: Activity
COLO 205 = assay: Growth inhibition of human COLO205 cells assessed as cell growth at 10^-7 M by sulforhodamine B assay; details: read-out: Activity
NCI-H522 = assay: Growth inhibition of human NCI-H522 cells assessed as cell growth at 10^-6 M by sulforhodamine B assay; details: read-out: Activity
RXF 393 = assay: Growth inhibition of human RXF393 cells assessed as cell growth at 10^-4 M by sulforhodamine B assay; details: read-out: Activity
T47D [5] = assay: Growth inhibition of human T47D cells assessed as cell growth at 10^-7 M by sulforhodamine B assay; details: read-out: Activity
SF-268 = assay: Growth inhibition of human SF268 cells assessed as cell growth at 10^-4 M by sulforhodamine B assay; details: read-out: Activity
SF-539 [6] = assay: Growth inhibition of human SF539 cells by sulforhodamine B assay
SW-620 = assay: Growth inhibition of human SW620 cells assessed as cell growth at 10^-4 M by sulforhodamine B assay; details: read-out: Activity
OVCAR-8 = assay: Growth inhibition of human OVCAR8 cells assessed as cell growth at 10^-4 M by sulforhodamine B assay; details: read-out: Activity
HT-29 = assay: Growth inhibition of human HT-29 cells by sulforhodamine B assay
RPMI-8226 [7] = assay: Growth inhibition of human RPMI8226 cells assessed as cell growth at 10^-6 M by sulforhodamine B assay; details: read-out: Activity
MOLT-4 = assay: Growth inhibition of human MOLT4 cells assessed as cell growth at 10^-8 M by sulforhodamine B assay; details: read-out: Activity
KM12 = assay: Growth inhibition of human KM12 cells assessed as cell growth at 10^-4 M by sulforhodamine B assay; details: read-out: Activity
ACHN = assay: Growth inhibition of human ACHN cells assessed as cell growth at 10^-8 M by sulforhodamine B assay; details: read-out: Activity
BT-549 = assay: Growth inhibition of human BT549 cells assessed as cell growth at 10^-7 M by sulforhodamine B assay; details: read-out: Activity
SN12C = assay: Growth inhibition of human SN12C cells assessed as cell growth at 10^-6 M by sulforhodamine B assay; details: read-out: Activity
SNB-75 = assay: Growth inhibition of human SNB75 cells assessed as cell growth at 10^-7 M by sulforhodamine B assay; details: read-out: Activity
IGROV-1 = assay: Growth inhibition of human IGROV1 cells assessed as cell growth at 10^-6 M by sulforhodamine B assay; details: read-out: Activity
UACC-62 = assay: Growth inhibition of human UACC62 cells assessed as cell growth at 10^-6 M by sulforhodamine B assay; details: read-out: Activity
MCF7 [8] = assay: Growth inhibition of human MCF7 cells assessed as cell growth at 10^-4 M by sulforhodamine B assay; details: read-out: Activity

CC(C)=CC(=O)O[C@@H]1CC(C)(C)C[C@H]2C3=CC[C@@H]4[C@@]5(C)CC[C@H](O)C(C)(C)[C@@H]5CC[C@@]4(C)[C@]3(C)CC[C@@]12C(=O)O [Reduced Lantadene B]
growth at 1 µM (MCF7 [1]): 88%
growth at 0.1 µM (OVCAR-4): 96%
growth at 0.1 µM (SF-539 [2]): 98%
growth at 100 µM (HCT-116): -80%
growth at 0.1 µM (RPMI-8226 [3]): 92%
growth at 0.01 µM (NCI-H226): 96%
growth at 100 µM (MDA-MB-435): -26%
growth at 1 µM (T47D [4]): 96%
growth at 0.01 µM (CCRF-CEM): 103%
growth at 0.1 µM (COLO 205): 97%
growth at 1 µM (NCI-H522): 78%
growth at 100 µM (RXF 393): -81%
growth at 0.1 µM (T47D [5]): 95%
growth at 100 µM (SF-268): -51%
GI50 (SF-539 [6]; read-out: GI50): 8.94 µM
CC50 (SF-539 [6]; read-out: LC50 (the source's name)): > 100 µM
TGI (SF-539 [6]; read-out: TGI): 36.2 µM
GI50 (SF-539 [6]; read-out: pGI50 (converted)): 8.91 µM
CC50 (SF-539 [6]; read-out: pLC50 (the source's name) (converted)): > 100 µM
TGI (SF-539 [6]; read-out: pTGI (converted)): 36.3 µM
growth at 100 µM (SW-620): -15%
growth at 100 µM (OVCAR-8): -40%
GI50 (HT-29; read-out: GI50): 4.24 µM
LC50 (50% cell kill) (HT-29; read-out: LC50): > 100 µM
TGI (HT-29; read-out: TGI): 27.1 µM
GI50 (HT-29; read-out: pGI50 (converted)): 4.27 µM
LC50 (50% cell kill) (HT-29; read-out: pLC50 (converted)): > 100 µM
TGI (HT-29; read-out: pTGI (converted)): 26.9 µM
growth at 1 µM (RPMI-8226 [7]): 65%
growth at 0.01 µM (MOLT-4): 106%
growth at 100 µM (KM12): -47%
growth at 0.01 µM (ACHN): 103%
growth at 0.1 µM (BT-549): 98%
growth at 1 µM (SN12C): 89%
growth at 0.1 µM (SNB-75): 89%
growth at 1 µM (IGROV-1): 101%
growth at 1 µM (UACC-62): 82%
growth at 100 µM (MCF7 [8]): -43%
